In patent US7994123B2, “Hybrid proteins with ErbB4 extracellular domain and neuregulin heparin-binding domain for targeting” (Wayne State University, priority 2004, dated 2011):

How the values were obtained:
[1] = tested on: MCF10CA1 human breast cancer cells; experiment: Cell proliferation assay, MCF10CA1; format: cell-based; details: IgB4 conditioned media, 10 μM AG1478 or 100 μg/ml Trastuzumab; for MCF10CA1 proliferation with exogenous NRG: 1 nM NRG
Protocol: Cell proliferation assays: All three breast epithelial cell lines were plated at 5000 cells/well in 48 well plates in regular MCF10A/AT or MCF10CA1 media. After incubation for 3 days, 1 nM NRG in MCF10A/AT media or just MCF10A/AT media alone were applied to the cells for another 24 hours followed by washing them with culture media and then counting cell numbers using an hemocytometer on the 4th, 5th, 6th, 7th and 8th day.
(§1) After 2 days, the Optimem I conditioned media was concentrated by Centricon at 4° C. 40 μl of IgB4 conditioned media or 10 μM of tyrosine kinase inhibitor AG1478 were combined with […] 1 nM NRG in MCF10A/AT media for 15 min at room temperature before being added to MCF10CA1 cells for 30 min treatment. […] The amount of each antagonist was determined empirically based on its ability to block NRG-induced activation of L6 cells.

[2] = tested on: erbB receptor phosphorylation (p185) in MCF10CA1 cells; experiment: p185 receptor phosphorylation western blot, MCF10CA1; format: cell-based, human; details: for exogenous NRG-induced p185 erbB receptor phosphorylation: AG1478 or 100 μg/ml Trastuzumab (24 h pre-treatment)
Protocol: Western blots and L6 muscle assays: P185 receptor phosphorylation of the three cell lines was measured by phosphotyrosine western blots after NRG treatment for 30 min on 3 day old cultures as described in WO 03/012045 and Li Q & Loeb J A (2001) J Biol Chem; 276:38068-75. […] The media was discarded and phosphotyrosine western blots were performed as above. The membranes were stripped and reprobed with polyclonal rabbit erbB2 for the detection of overall erbB2 protein that was used for quantitation.
as §1

[3] = tested on: erbB phosphorylation (p185) in L6 muscle cells; experiment: NRG1-induced erbB phosphorylation after reducing endogenous HSPG sulfation; format: cell-based; details: chlorate 48 hours
Protocol: Cell Cultures and Western Blots for p185 phosphorylation—L6 Cells were used to quantify erbB receptor phosphotyrosine (p185) as described (WO 03/012045; Li & Loeb, supra). Cells were plated at 50,000 cells/well and grown for 8 days. Chlorate was filter sterilized and incubated with L6 cells for 2 days prior to the assay. Inhibition assays of p185 were performed by pre-incubating 75 pM of IgEGF NRG1 and various concentrations of the heparins at room temp for 20 minutes. 150 μL of this mixture was then applied to 8 day-old L6 cells for 45 minutes at 37° C. in […]. The medium was aspirated, and the cells were solubilized in 50 μL sample buffer and boiled for 5 minutes as described previously (WO 03/012045; Li & Loeb, supra) 15 μL of this was resolved on a 5% denaturing polyacrylamide gel. Phosphorylated forms of the erbB receptors (p185) were detected by western blot analysis using the phosphotyrosine monoclonal antibody 4G10 (Upstate) and then verified and quantified by reprobing with a mixture of antibodies against erbB2 (Neomarkers Ab-17) and erbB3 (Neomarkers Ab-6). Quantitation was performed by determining the ratio of p185/(erbB2+erbB3) using Metamorph Imaging System (Universal Imaging Corp) on non-saturated images as described (Esper, R M & Loeb, J A (2004) J Neurosci 24:6218-27) […]

[4] = tested on: NRG1-induced erbB receptor phosphorylation (p185) in L6 cells; experiment: Inhibition of NRG1-induced p185 by heparins in L6 cells; format: cell-based; details: for inhibition of NRG1-induced erbB receptor phosphorylation (p185): 75 pM IgEGF NRG1 pre-incubated with heparin 20 minutes, L6 cells 45 minutes
Protocol: Cell Cultures and Western Blots for p185 phosphorylation—L6 Cells were used to quantify erbB receptor phosphotyrosine (p185) as described (WO 03/012045; Li & Loeb, supra). Cells were plated at 50,000 cells/well and grown for 8 days. Chlorate was filter sterilized and incubated with L6 cells for 2 days prior to the assay. Inhibition assays of p185 were performed by pre-incubating 75 pM of IgEGF NRG1 and various concentrations of the heparins at room temp for 20 minutes. 150 μL of this mixture was then applied to 8 day-old L6 cells for 45 minutes at 37° C. in […]. The medium was aspirated, and the cells were solubilized in 50 μL sample buffer and boiled for 5 minutes as described previously (WO 03/012045; Li & Loeb, supra) 15 μL of this was resolved on a 5% denaturing polyacrylamide gel. Phosphorylated forms of the erbB receptors (p185) were detected by western blot analysis using the phosphotyrosine monoclonal antibody 4G10 (Upstate) and then verified and quantified by reprobing with a mixture of antibodies against erbB2 (Neomarkers Ab-17) and erbB3 (Neomarkers Ab-6). Quantitation was performed by determining the ratio of p185/(erbB2+erbB3) using Metamorph Imaging System (Universal Imaging Corp) on non-saturated images as described (Esper, R M & Loeb, J A (2004) J Neurosci 24:6218-27)

NRG1 = biological target: T1, NRG1 (Homo sapiens, UniProt Q02297); experiment: Gel mobility shift assay (GMSA); format: binding; details: 35 ng NRG1, 20 minutes; heparins at 0, 1, 10, 100 μg/ml
T1 construct: the intact IgEGF form of NRG1 corresponds to amino acids 14-246; purchased R&D (Minneapolis Minn.)
T1 sequence (Q02297 14-246 isoform Q02297-6): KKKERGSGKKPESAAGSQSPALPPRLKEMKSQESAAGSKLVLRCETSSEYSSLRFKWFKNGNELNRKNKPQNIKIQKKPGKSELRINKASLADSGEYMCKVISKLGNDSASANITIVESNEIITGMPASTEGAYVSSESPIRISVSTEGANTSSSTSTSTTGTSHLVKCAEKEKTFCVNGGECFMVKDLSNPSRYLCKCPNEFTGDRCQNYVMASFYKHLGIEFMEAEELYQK
Protocol: Gel Mobility Shift Assay (GMSA)—NRG1 alone, or NRG1 plus various heparins at various concentrations were incubated with binding buffer (2.7 mM KCl, 4.3 mM Na2HPO4, 10 mM MgCl2, 1.4 mM KH2PO4, 12% glycerol, 1 mM DTT.) for 20 minutes and run on a 6% (29:1 acrylamide:bis) non-denaturing gel (10 mM Tris (pH 7.4), 1 mM EDTA) for 20 minutes at 200 V as described (Wu, Z L et al. (2002) FASEB J 16, 539-45; Wu, Z L et al. (2003) J Biol Chem 278:17121-29). […] However, band resolution was sharper at pH 8.0 and was therefore used for our studies here. Protein was transferred to a polyvinylidene fluoride membrane (Millipore corp.) for 1 hr at 100V. NRG1 bands were detected by western blot analysis using a polyclonal rabbit antiserum (AD03) developed against the IgEGF polypeptide (Assay Designs Inc.). The filters were then probed with a goat anti-rabbit antibody coupled to peroxidase (Chemicon), exposed to X-blue film (Eastman Kodak Co.) after treatment with chemiluminescence reagents, and bands were quantified as above.

[5] = 1 nM NRG, 30 min, IgB4 conditioned media

## COc1cc2ncnc(Nc3cccc(Cl)c3)c2cc1OC [AG1478, reference compound]
[1]
  MCF10CA1 proliferation with exogenous NRG: reduced the growth rate
  MCF10CA1 growth rate without exogenous NRG: reduced the growth rate
[2]; 1 nM NRG, 30 min
  EGF receptor phosphorylation (lower band): reducing both p185 (erbB2/3, upper band) and EGF receptor phosphorylation (lower band) in a dose dependent manner
[2]; [5]
  exogenous NRG-induced p185 erbB receptor phosphorylation: blocked NRG-induced erbB signaling

## [O-][Cl+2]([O-])O [chlorate, Sodium chlorate]
[3]; EGF form lacking the heparin-binding domain
  reduction of receptor phosphorylation, EGF form: no reduction
[3]; full-length heparin-binding NRG1 (IgEGF)
  reduction of receptor phosphorylation, IgEGF NRG1: 53%

## De-2O sulfated heparin
[4]
  inhibition of NRG1-induced erbB receptor phosphorylation (p185): intermediate effects
NRG1
  shift of NRG1 mobility (NRG1 binding): shifted NRG1 better than De-N sulfated heparin but less than fully sulfated heparin

## De-6O sulfated heparin
[4]
  inhibition of NRG1-induced erbB receptor phosphorylation (p185): intermediate effects
NRG1
  shift of NRG1 mobility (NRG1 binding): shifted NRG1 better than De-N sulfated heparin but less than fully sulfated heparin

## De-N sulfated heparin
[4]
  inhibition of NRG1-induced erbB receptor phosphorylation (p185): little inhibition even at 100 μg/ml
[4]; 1 μg/ml
  effect on receptor phosphorylation at low concentration: modest stimulatory effect
NRG1
  shift of NRG1 mobility (NRG1 binding): did not shift NRG1

## heparin
[4]
  inhibition of NRG1-induced erbB receptor phosphorylation (p185): inhibited by fully-sulfated heparin in a dose-dependent manner
NRG1
  shift of NRG1 mobility (NRG1 binding): shift NRG1 in a dose-dependent manner

B1: IgB4: soluble NRG antagonist: ECD of erbB4 receptor fused to Fc portion of human IgG1 (protein)
chain: QSVCAGTENKLSSLSDLEQQYRALRKYYENCEVVMGNLEITSIEHNRDLSFLRSVREVTGYVLVALNQFRYLPLENLRIIRGTKLYEDRYALAIFLNYRKDGNFGLQELGLKNLTEILNGGVYVDQNKFLCYADTIHWQDIVRNPWPSNLTLVSTNGSSGCGRCHKSCTGRCWGPTENHCQTLTRTVCAEQCDGRCYGPYVSDCCHRECAGGCSGPKDTDCFACMNFNDSGACVTQCPQTFVYNPTTFQLEHNFNAKYTYGAFCVKKCPHNFVVDSSSCVRACPSSKMEVEENGIKMCKPCTDICPKACDGIGTGSLMSAQTVDSSNIDKFINCTKINGNLIFLVTGIHGDPYNAIEAIDPEKLNVFRTVREITGFLNIQSWPPNMTDFSVFSNLVTIGGRVLYSGLSLLILKQQGITSLQFQSLKEISAGNIYITDNSNLCYYHTINWTTLFSTINQRIVIRDNRKAENCTAEGMVCNHLCSSDGCWGPGPDQCLSCRRFSRGRICIESCNLYDGEFREFENGSICVECDPQCEKMEDGLLTCHGPGPDNCTKCSHFKDGPNCVEKCPDGLQGANSFIFKYADPDRECHPCHPNCTQGCNGPTSHDCIYYPWTGHSTLPQHARTP
modifications: left off: a dimerising Fc or GST
notes: soluble NRG antagonist: ECD of erbB4 receptor fused to Fc portion of human IgG1
[1]
  MCF10CA1 proliferation with exogenous NRG: blocked MCF10CAL cell proliferation induced by exogenous NRG treatment
  MCF10CA1 growth rate without exogenous NRG: significantly reduced the baseline growth rate
[2]; [5]
  exogenous NRG-induced p185 erbB receptor phosphorylation: effectively blocked
[2]; no exogenous NRG, IgB4 conditioned media, 10 μM AG1478 or 100 μg/ml Trastuzumab (24 h pre-treatment)
  basal p185 erbB receptor phosphorylation: effectively blocked
